From ChEMBL document CHEMBL4152336, “Optimization of the first small-molecule relaxin/insulin-like family peptide receptor (RXFP1) agonists: Activation results in an antifibrotic gene expression profile” (Eur J Med Chem, 2018)
Values after ≈ are worked out from the molar mass of the structure shown. Active and inactive are the calls of the source. No cut-off for these calls is given here.

How the values were obtained:
[1] = Aqueous kinetic solubility of the compound in PBS by shake-flask method; format: physicochemical; details: PBS; read-out: Kinetic_solubility
[2] = test system: Mus musculus; experiment: Toxicity in C57/BL6 mouse assessed as abnormal behavior at 3 to 30 mg/kg, iv; format: organism-based; details: in vivo
[3] = test system: Mus musculus; experiment: Toxicity in C57/BL6 mouse assessed as abnormal behavior at 3 to 30 mg/kg, po; format: organism-based; details: in vivo
[4] = Drug level in C57/BL6 mouse heart at 3 mg/kg, iv after 0.25 hrs; format: ADME, organism-based; details: in vivo
[5] = Drug level in C57/BL6 mouse heart at 3 mg/kg, iv after 0.5 hrs; format: ADME, organism-based; details: in vivo
[6] = Drug level in C57/BL6 mouse heart at 3 mg/kg, iv after 1 hr; format: ADME, organism-based; details: in vivo
[7] = Drug level in C57/BL6 mouse heart at 3 mg/kg, iv after 2 hrs; format: ADME, organism-based; details: in vivo
[8] = Drug level in C57/BL6 mouse heart at 3 mg/kg, iv after 3 hrs; format: ADME, organism-based; details: in vivo
[9] = Drug level in C57/BL6 mouse heart at 3 mg/kg, iv after 24 hrs; format: ADME, organism-based; details: in vivo
[10] = Drug level in C57/BL6 mouse heart at 30 mg/kg, po after 0.17 hrs; format: ADME, organism-based; details: in vivo
[11] = Drug level in C57/BL6 mouse heart at 30 mg/kg, po after 0.5 hrs; format: ADME, organism-based; details: in vivo
[12] = Drug level in C57/BL6 mouse heart at 30 mg/kg, po after 1 hr; format: ADME, organism-based; details: in vivo
[13] = Drug level in C57/BL6 mouse heart at 30 mg/kg, po after 2 hrs; format: ADME, organism-based; details: in vivo
[14] = Drug level in C57/BL6 mouse heart at 30 mg/kg, po after 5 hrs; format: ADME, organism-based; details: in vivo
[15] = Drug level in C57/BL6 mouse heart at 30 mg/kg, po after 7 hrs; format: ADME, organism-based; details: in vivo
[16] = Drug level in C57/BL6 mouse heart at 30 mg/kg, po after 24 hrs; format: ADME, organism-based; details: in vivo, BLD = below limit of detection
[17] = test system: Mus musculus; experiment: Toxicity in C57/BL6 mouse assessed as body weight at 90 mg/kg, po treated for 5 days measured at day 1 post last dose (reference value: 20.3 +/- 2.6 g); format: organism-based; details: in vivo, 120 h
[18] = test system: Mus musculus; experiment: Toxicity in C57/BL6 mouse assessed as body weight at 300 mg/kg, po treated for 5 days measured at day 1 post last dose (reference value: 20.3 +/- 2.6 g); format: organism-based; details: in vivo, 120 h
[19] = test system: Mus musculus; experiment: Toxicity in C57/BL6 mouse assessed as body weight at 90 mg/kg, po treated for 5 days measured at day 2 post last dose (reference value: 19.8 +/- 2.3 g); format: organism-based; details: in vivo, 120 h
[20] = test system: Mus musculus; experiment: Toxicity in C57/BL6 mouse assessed as body weight at 300 mg/kg, po treated for 5 days measured at day 2 post last dose (reference value: 19.8 +/- 2.3 g); format: organism-based; details: in vivo, 120 h
[21] = test system: Mus musculus; experiment: Toxicity in C57/BL6 mouse assessed as body weight at 90 mg/kg, po treated for 5 days measured at day 3 post last dose (reference value: 19.8 +/- 2.5 g); format: organism-based; details: in vivo, 120 h
[22] = test system: Mus musculus; experiment: Toxicity in C57/BL6 mouse assessed as body weight at 300 mg/kg, po treated for 5 days measured at day 3 post last dose (reference value: 19.8 +/- 2.5 g); format: organism-based; details: in vivo, 120 h
[23] = test system: Mus musculus; experiment: Toxicity in C57/BL6 mouse assessed as body weight at 300 mg/kg, po treated for 5 days measured at day 5 post last dose (reference value: 20.3 +/- 2.8 g); format: organism-based; details: in vivo, 120 h
[24] = test system: Mus musculus; experiment: Toxicity in C57/BL6 mouse assessed as body weight at 3000 mg/kg, po treated for 5 days measured at day 5 post last dose (reference value: 20.3 +/- 2.8 g); format: organism-based; details: in vivo, 120 h
[25] = test system: Mus musculus; experiment: Toxicity in C57/BL6 mouse assessed as body weight at 90 mg/kg, po treated for 5 days measured at day 6 post last dose (reference value: 20.6 +/- 2.6 g); format: organism-based; details: in vivo, 120 h
[26] = test system: Mus musculus; experiment: Toxicity in C57/BL6 mouse assessed as body weight at 300 mg/kg, po treated for 5 days measured at day 6 post last dose (reference value: 20.6 +/- 2.6 g); format: organism-based; details: in vivo, 120 h
[27] = test system: Mus musculus; experiment: Toxicity in C57/BL6 mouse assessed as body weight at 3000 mg/kg, po treated for 5 days measured at day 6 post last dose (reference value: 20.6 +/- 2.6 g); format: organism-based; details: in vivo, 120 h
[28] = test system: Mus musculus; experiment: Toxicity in C57/BL6 mouse assessed as body weight at 90 mg/kg, po treated for 5 days measured at day 7 post last dose (reference value: 20.6 +/- 2.9 g); format: organism-based; details: in vivo, 120 h
[29] = test system: Mus musculus; experiment: Toxicity in C57/BL6 mouse assessed as body weight at 300 mg/kg, po treated for 5 days measured at day 7 post last dose (reference value: 20.6 +/- 2.9 g); format: organism-based; details: in vivo, 120 h
[30] = test system: Mus musculus; experiment: Toxicity in C57/BL6 mouse assessed as body weight at 300 mg/kg, po treated for 5 days measured at day 8 post last dose (reference value: 20.6 +/- 2.8 g); format: organism-based; details: in vivo, 120 h
[31] = test system: Mus musculus; experiment: Toxicity in C57/BL6 mouse assessed as body weight at 3000 mg/kg, po treated for 5 days measured at day 8 post last dose (reference value: 20.6 +/- 2.8 g); format: organism-based; details: in vivo, 120 h
[32] = test system: Mus musculus; experiment: Toxicity in C57/BL6 mouse assessed as body weight at 90 mg/kg, po treated for 5 days measured at day 9 post last dose (reference value: 20.7 +/- 2.9 g); format: organism-based; details: in vivo, 120 h
[33] = test system: Mus musculus; experiment: Toxicity in C57/BL6 mouse assessed as body weight at 300 mg/kg, po treated for 5 days measured at day 9 post last dose (reference value: 20.7 +/- 2.9 g); format: organism-based; details: in vivo, 120 h
[34] = test system: Mus musculus; experiment: Toxicity in C57/BL6 mouse assessed as body weight at 3000 mg/kg, po treated for 5 days measured at day 9 post last dose (reference value: 20.7 +/- 2.9 g); format: organism-based; details: in vivo, 120 h
[35] = test system: Mus musculus; experiment: Toxicity in C57/BL6 mouse assessed as body weight at 90 mg/kg, po treated for 5 days measured at day 10 post last dose (reference value: 20.7 +/- 2.6 g); format: organism-based; details: in vivo, 120 h
[36] = test system: Mus musculus; experiment: Toxicity in C57/BL6 mouse assessed as body weight at 300 mg/kg, po treated for 5 days measured at day 10 post last dose (reference value: 20.7 +/- 2.6 g); format: organism-based; details: in vivo, 120 h
[37] = test system: Mus musculus; experiment: Toxicity in C57/BL6 mouse assessed as body weight at 3000 mg/kg, po treated for 5 days measured at day 10 post last dose (reference value: 20.7 +/- 2.6 g); format: organism-based; details: in vivo, 120 h
[38] = organism: Homo sapiens; experiment: Down regulation of TGFB1 gene expression in human HSC at 5 uM after 24 to 72 hrs by RT-qPCR analysis; format: functional
[39] = organism: Homo sapiens; experiment: Upregulation of MMP1 gene expression in human HSC at 5 uM after 24 to 72 hrs by RT-qPCR analysis; format: functional
[40] = organism: Homo sapiens; experiment: Upregulation of PPARGC1A gene expression in human HSC at 5 uM after 24 to 72 hrs by RT-qPCR analysis; format: functional
[41] = organism: Homo sapiens; experiment: Down regulation of COL1A1 gene expression in human HSC at 5 uM after 24 to 72 hrs by RT-qPCR analysis; format: functional

With CC(C)Oc1ccccc1C(=O)Nc1ccccc1C(=O)Nc1cccc(S(=O)(=O)C(F)(F)F)c1 the solubility kinetic [1] was 7 µM (≈ 3.55 µg/mL), the Activity [2] was “Non-Toxic” and the Activity [3] was “Non-Toxic”. It also gave a Drug uptake [4] of 2.084 µmol/kg, a Drug uptake [5] of 2.001 µmol/kg and a Drug uptake [6] of 1.395 µmol/kg. For the same compound, the Drug uptake [7] was 1.206 µmol/kg, the Drug uptake [8] was 0.6 µmol/kg and the Drug uptake [9] was 0.109 µmol/kg. For the same compound, the Drug uptake [10] was 0.926 µmol/kg, the Drug uptake [11] was 1.428 µmol/kg and the Drug uptake [12] was 1.041 µmol/kg. The Drug uptake [13] was 1.016 µmol/kg, the Drug uptake [14] was 0.256 µmol/kg and the Drug uptake [15] was 0.067 µmol/kg. For the same compound, the Drug uptake [16] was “Bld”, the Activity [17] was 19.9 g and the Activity [18] was 20.4 g. For the same compound, the Activity [19] was 19.9 g, the Activity [20] was 20.1 g and the Activity [21] was 19.9 g. The Activity [22] was 20.4 g, the Activity [23] was 20.6 g and the Activity [24] was 20.8 g. The Activity [25] was 20.4 g, the Activity [26] was 20.8 g and the Activity [27] was 21.1 g. For the same compound, the Activity [28] was 20.4 g, the Activity [29] was 20.9 g and the Activity [30] was 21.2 g. For the same compound, the Activity [31] was 21.1 g, the Activity [32] was 20.8 g and the Activity [33] was 21 g. The Activity [34] was 21.2 g, the Activity [35] was 20.8 g and the Activity [36] was 21.3 g. For the same compound, the Activity [37] was 21.3 g, the Activity [38] was “Active” and the Activity [39] was “Active”. For the same compound, the Activity [40] was “Active” and the Activity [41] was “Active”.
